test: recombinant barcode read abundance after kanamycin selection (control-corrected) (log10(CPM+1)); higher = more efficient recombination; sequences stand for … in AGTGCAGAGAAAATCGGCCAGTTTTCTCTGCCTGCAGTCCGCATGCCGT…AGATTTATGCAGCGGACTGCCTTTCTCCCAAAGTGATAAACCGGACAGTATCATGGACCGGTTTTCCCGGTAATCCGTATTTGCAAGGTTGGTTTCACT; site = the 11-nt target
In short: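 Two replicates per condition were plated: chloramphenicol/ampicillin LB agar for the control, and chloramphenicol/ampicillin/kanamycin with 0.1 mM IPTG for selection. The pooled E. coli screen behind them paired targets with IS621 bridge RNA target-binding loops. Recombination efficiency is expressed from averaged, control-corrected barcode counts per million at recombinant junctions, as log10(CPM+1).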
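Note: IS621 recombinase and bridge RNA in Escherichia coli cells.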

In order of rising “recombinant barcode read abundance (log10)” value:
1. TGTAATTCTTGGGTTCTAACCTGTTGCCT (site TGTAATGCTAG)  0
2. TGCTCTACTTGGGTTCTAACCTGTTGCTT (site TGTTCTACTAA)  0.00634
3. TGTAATCCTTGGGTTCTAACCTGTTGCCT (site TGTAATTCTAG)  0.0105
4. TGTAATGCTTGGGTTCTAACCTGTTGCCT (site TGTAATACTAG)  0.0123
5. TGGTACCCTTGGGTTCTAACCTGTTGCTA (site GTTACTACTCG)  0.0129
6. TGGTAGTCTTGGGTTCTAACCTGTTGCGT (site AAAGCTACTTA)  0.0198
7. TGTCGGACTTGGGTTCTAACCTGTTGCAT (site TGTCGGACTGT)  0.0199
8. TGTAATCCTTGGGTTCTAACCTGTTGCCT (site TGTAATCCTAG)  0.025
9. TGTCAAACTTGGGTTCTAACCTGTTGCGT (site TGTCAACCTAC)  0.0278
10. TGGTATACTTGGGTTCTAACCTGTTGCCT (site TGGTATCCTAG)  0.0279
11. TGCTCTACTTGGGTTCTAACCTGTTGCTT (site TGCTCTACTAA)  0.0286
12. TGTAATCCTTGGGTTCTAACCTGTTGCCT (site TGTAATGCTAG)  0.032
13. TGCTGTGCTTGGGTTCTAACCTGTTGCCT (site TGCTGTACTAG)  0.0329
14. TGTCGAGCTTGGGTTCTAACCTGTTGCCG (site TGTAGAGCTCG)  0.0366
15. TGTCTGTCTTGGGTTCTAACCTGTTGCTT (site TGTCTGTCTTA)  0.0372
16. TGTCGCTCTTGGGTTCTAACCTGTTGCCT (site TGCCGCTCTAG)  0.0379
17. TGTCGGACTTGGGTTCTAACCTGTTGCAT (site TGTCGGACTTT)  0.0384
18. TGTCGGACTTGGGTTCTAACCTGTTGCAA (site TGTCGGACTGT)  0.0423
19. TGGCAGACTTGGGTTCTAACCTGTTGCCT (site TGGCAGGCTAG)  0.0442
20. TGTCGCTCTTGGGTTCTAACCTGTTGCCT (site TGACGCTCTAG)  0.0464
21. TGGAACACTTGGGTTCTAACCTGTTGCCT (site TGGACCACTAG)  0.0483
22. TGGTGTGCTTGGGTTCTAACCTGTTGCCA (site TAGTGTCCTTG)  0.0537
23. TGGCTGTCTTGGGTTCTAACCTGTTGCCT (site TGGTTGTCTAG)  0.0561
24. TGGAACACTTGGGTTCTAACCTGTTGCCT (site TGGAGCACTAG)  0.0596
25. TGTCGAGCTTGGGTTCTAACCTGTTGCCG (site TGTGGAGCTCG)  0.0604
26. TGGCAGCCTTGGGTTCTAACCTGTTGCCT (site TGGCAGACTAG)  0.0766
27. TGTAATTCTTGGGTTCTAACCTGTTGCCT (site TGTAATCCTAG)  0.0849
28. TGCTCTACTTGGGTTCTAACCTGTTGCTT (site TGGTCTACTAA)  0.0891
29. TGGCAGCCTTGGGTTCTAACCTGTTGCCT (site TGGCAGTCTAG)  0.0934
30. TGTCTACCTTGGGTTCTAACCTGTTGCTA (site TGTCTACCTTA)  0.103
31. TGTCGAGCTTGGGTTCTAACCTGTTGCCG (site TGTTGAGCTCG)  0.106
32. TGTCGAGCTTGGGTTCTAACCTGTTGCCG (site TGTCGAGCTCG)  0.107
33. TGGCGTGCTTGGGTTCTAACCTGTTGCCT (site TGTTGTGCTAG)  0.118
34. TGGAACACTTGGGTTCTAACCTGTTGCCT (site TGGATCACTAG)  0.119
35. TGGTATACTTGGGTTCTAACCTGTTGCCT (site TGGTATTCTAG)  0.122
36. TGGACGTCTTGGGTTCTAACCTGTTGCCT (site TGGACGCCTAG)  0.125
37. TGTCGCTCTTGGGTTCTAACCTGTTGCCT (site TGGCGCTCTAG)  0.129
38. TGTAATTCTTGGGTTCTAACCTGTTGCCT (site TGTAATACTAG)  0.139
39. TGGACTTCTTGGGTTCTAACCTGTTGCTC (site TGGACTTCTGA)  0.141
40. TGTAAGGCTTGGGTTCTAACCTGTTGCTT (site TGTAAGACTCA)  0.142
41. TGTCGGACTTGGGTTCTAACCTGTTGCAA (site TGTCGGACTAT)  0.146
42. TGTCGGACTTGGGTTCTAACCTGTTGCAA (site TGTCGGACTCT)  0.149
43. TGTCTCCCTTGGGTTCTAACCTGTTGCGT (site GAAGAGGCTTG)  0.154
44. TGCTGTGCTTGGGTTCTAACCTGTTGCCT (site TGCTGTCCTAG)  0.179
45. TGTAATTCTTGGGTTCTAACCTGTTGCCT (site TGTAATTCTAG)  0.18
46. TGTCGGACTTGGGTTCTAACCTGTTGCAT (site TGTCGGACTCT)  0.18
47. TGTAATGCTTGGGTTCTAACCTGTTGCCT (site TGTAATCCTAG)  0.181
48. TGTAATGCTTGGGTTCTAACCTGTTGCCT (site TGTAATTCTAG)  0.181
49. TGGTATACTTGGGTTCTAACCTGTTGCCT (site TGGTATGCTAG)  0.183
50. TGTCTGTCTTGGGTTCTAACCTGTTGCTT (site TGTCTGTCTAA)  0.186
51. TGTCTACCTTGGGTTCTAACCTGTTGCTA (site TGTCTCCCTAA)  0.209
52. TGGCAGACTTGGGTTCTAACCTGTTGCCT (site TGGCAGACTAG)  0.215
53. TGGCAGCCTTGGGTTCTAACCTGTTGCCT (site TGGCAGCCTAG)  0.216
54. TGGACCTCTTGGGTTCTAACCTGTTGCCA (site TGGACCTCTTG)  0.222
55. TGGCAGCCTTGGGTTCTAACCTGTTGCCT (site TGGCAGGCTAG)  0.231
56. TGGCAGACTTGGGTTCTAACCTGTTGCCT (site TGGCAGTCTAG)  0.232
57. TGGACTTCTTGGGTTCTAACCTGTTGCTC (site TGGACTTCTCA)  0.24
58. TGGTATACTTGGGTTCTAACCTGTTGCCT (site TGGTATACTAG)  0.241
59. TGGCAGACTTGGGTTCTAACCTGTTGCCT (site TGGCAGCCTAG)  0.263
60. TGGTGTGCTTGGGTTCTAACCTGTTGCCA (site TGGTGTGCTTG)  0.267
61. TGTAAGGCTTGGGTTCTAACCTGTTGCTT (site TGTAAGGCTAA)  0.27
62. TGCTGTGCTTGGGTTCTAACCTGTTGCCT (site TGCTGTTCTAG)  0.279
63. TGCTGTGCTTGGGTTCTAACCTGTTGCCT (site TGCTGTGCTAG)  0.29
64. TGTAATCCTTGGGTTCTAACCTGTTGCCT (site TGTAATACTAG)  0.327
65. TGGCGTGCTTGGGTTCTAACCTGTTGCCT (site TGGCGTGCTAG)  0.382
66. TGTCGGACTTGGGTTCTAACCTGTTGCAA (site TGTCGGACTTT)  0.421
67. TGGACCTCTTGGGTTCTAACCTGTTGCCA (site CTACGAACTCC)  0.626
68. TGTCAAACTTGGGTTCTAACCTGTTGCGT (site TGTCAAACTAC)  0.838
69. TGGACGTCTTGGGTTCTAACCTGTTGCCT (site TGGACGTCTAG)  0.865
70. TGTAATGCTTGGGTTCTAACCTGTTGCCT (site TGTAATGCTAG)  0.912
71. TGGAACACTTGGGTTCTAACCTGTTGCCT (site TGGAACACTAG)  0.98
72. TGTCTCCCTTGGGTTCTAACCTGTTGCGT (site TGTCTCCCTAC)  1.04
73. TGTCGCTCTTGGGTTCTAACCTGTTGCCT (site TGTCGCTCTAG)  1.1
74. TGGCTGTCTTGGGTTCTAACCTGTTGCCT (site TGGCTGTCTAG)  1.2
75. TGTCGGACTTGGGTTCTAACCTGTTGCAT (site TGTCGGACTAT)  1.32
76. TGGTACCCTTGGGTTCTAACCTGTTGCTA (site TGGTACCCTTA)  1.36
77. TGGTAGTCTTGGGTTCTAACCTGTTGCGT (site TGGTAGTCTAC)  2.57

Source: the supplement of paper PMC11208160
